Reference: ChEMBL document CHEMBL1201862, “PubChem BioAssay data set” (2004)
Where “and” joins values, the source holds several entries; their conditions need not be identical. Equal entries are not always repeated. Calls of active or inactive are those of the source.

How the values were obtained:
[1] = target: 1-phosphatidylinositol 4,5-bisphosphate phosphodiesterase gamma-1 (Homo sapiens, UniProt P19174); assay: Counterscreen for inhibitors of phospholipase C isozymes (PLC-B3): Fluorescence-based biochemical high throughput dose response assay to identify inhibitors of phospholipase C isozymes (PLC-gamma1).
[2] = target: 1-phosphatidylinositol 4,5-bisphosphate phosphodiesterase beta-3 (Homo sapiens, UniProt Q01970); assay: Fluorescence-based biochemical high throughput dose response assay to identify inhibitors of phospholipase C isozymes (PLC-B3).
[3] = target: G-protein coupled receptor 183 (Homo sapiens, UniProt P32249); assay: SAR confirmation of small molecule antagonists of the EBI2 receptor via a luminescent beta-arrestin assa.; format: functional
[4] = LMP1-driven NF-kB reporter inhibition, dose response, cell-based, luciferase reporter, luminescence, dry powder, set 2 (AID 624376); format: functional
[5] = HEK293 cell cytotoxicity, dose response, cytotoxicity control, cherry-picks, set 5 (AID 1053117); format: functional, cell-based
[6] = A549 cell cytotoxicity, dose response, cytotoxicity control, cherry-picks, 26 µM top dose (AID 1053119); format: functional, cell-based
[7] = NIH/3T3 fibroblast cytotoxicity, dose response, cytotoxicity control, cell-based, plate reader, dry powder, set 2 (AID 652280); format: functional; details: NIH3T3
[8] = T. cruzi growth inhibition in host cells, dose response, cell-based, plate reader, dry powder, set 2 (AID 652275); format: functional
Paired box protein Pax-8 = Paired box protein Pax-8 (Homo sapiens, UniProt Q06710); assay: inhibitors of PAX8-driven TPO luciferase reporter, dose response, RMG-I cells, cherry-pick (AID 687027); format: functional, cell-based;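 also: luciferase reporter driven by Pax8 target thyroperoxidase promoter measured by SteadyGlo luminescence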
[9] = inhibitors of CMV-promoter luciferase reporter, dose response, counter-screen for Pax8 inhibitor project, cell-based, HEK293, luminescence, dry powder (AID 743020); format: functional
[10] = NIH:OVCAR-3 ovarian cancer cell cytotoxicity, dose response, PAX8 inhibitor project, plate reader, dry powder samples (AID 743044); format: functional, cell-based
[11] = cytotoxicity in OVCAR8 ovarian cancer cells, dose response, PAX8 project, cell-based, plate reader, dry powder samples (AID 743197); format: functional; details: OVCAR-8
Kallikrein-7 = Kallikrein-7 (Homo sapiens, UniProt P49862); assay: Fluorescence Intensity-based biochemical primary high throughput dose response assay to identify activators of kallikrein-7 (K7) zymogen.
[12] = EDANS-DABCYL fluorescence interference, concentration series, dose response, artefact control for kallikrein-7 zymogen activator project, biochemical, fluorescence intensity, triplicate (AID 720493)
[13] = target: T1, Heat shock protein HSP 90-alpha (Homo sapiens, UniProt P07900); assay: Luminescence-based dose response biochemical high throughput screening assay for inhibitors of the Heat Shock Protein 90 (HSP90). [Related pubchem assays: 1831 (Summary AID.), 1846 (Confirmation screen.), 1789 (Primary screen.)]
Vero [14] = assay: cells; format: functional; details: Chlorocebus sabaeus
[15] = Late stage assay provider results from the probe development effort to identify selective inhibitors of heat shock protein 90 (HSP90): Absorbance-based cell proliferation assay in SKBR3 cells.; format: functional; details: SK-BR-3
[16] = Late stage assay provider results from the probe development effort to identify selective inhibitors of heat shock protein 90 (HSP90): Absorbance-based cell proliferation assay in MCF7 cells.; format: functional
[17] = target: Glucose-6-phosphate 1-dehydrogenase (Homo sapiens, UniProt P11413); assay: human G6PD enzyme inhibitors, dose response, selectivity assay for P. falciparum G6PD inhibitor project, biochemical, fluorescence (AID 504792); format: functional
Nonstructural protein 1 = Nonstructural protein 1 (Influenza A virus, UniProt Q194T2); format: functional, Influenza A virus (A/California/07/2009(H1N1))
CHO = assay: cytotoxicity in TLR9-MyD88 CHO cells, dose response, cytotoxicity control for TLR9-MyD88 binding inhibitor project, cell-based, luminescence (AID 588339); format: functional, hamster; details: Cricetulus griseus;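 also: CHO cells stably coexpressing TLR9 and MyD88 fusions from primary screen; compound exposure lasted 48 hours before viability readout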
[18] = target: T1, Heat shock protein HSP 90-alpha; format: functional, organism-based
Vero [19] = assay: Vero cell cytotoxicity, cytotoxicity control for flavivirus capping enzyme inhibitors (AID 588742); format: functional; details: Chlorocebus sabaeus
Beta Lactamase = Beta Lactamase (Pseudomonas aeruginosa, UniProt Q932Y6); assay: beta-lactamase reporter inhibitor potency, dose response, artefact control for TLR9-MyD88 binding inhibitor project, BLA reporter cells, FRET fluorescence (AID 588341); format: cell-based;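 also: cell based assay in CHO-K1 cells stably expressing beta-lactamase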
Genome polyprotein = Genome polyprotein (dengue virus type 2, UniProt P29990); assay: Dengue-2 NS5 methyltransferase inhibitors, primary screen, biochemical, confirmation dose response (AID 588689); format: functional
[20] = HeLa cell cytotoxicity, dose response, cytotoxicity control for MgcRacGAP inhibitor project (AID 624300); format: functional
[21] = target: T2, Rac GTPase-activating protein 1 (Homo sapiens, UniProt Q9H0H5); assay: MgcRacGAP GTPase-activating activity inhibitors, confirmation, biochemical, ADP Hunter fluorescence, primary and confirmatory (AID 624330); format: functional
T2 sequence (Q9H0H5 whole entry): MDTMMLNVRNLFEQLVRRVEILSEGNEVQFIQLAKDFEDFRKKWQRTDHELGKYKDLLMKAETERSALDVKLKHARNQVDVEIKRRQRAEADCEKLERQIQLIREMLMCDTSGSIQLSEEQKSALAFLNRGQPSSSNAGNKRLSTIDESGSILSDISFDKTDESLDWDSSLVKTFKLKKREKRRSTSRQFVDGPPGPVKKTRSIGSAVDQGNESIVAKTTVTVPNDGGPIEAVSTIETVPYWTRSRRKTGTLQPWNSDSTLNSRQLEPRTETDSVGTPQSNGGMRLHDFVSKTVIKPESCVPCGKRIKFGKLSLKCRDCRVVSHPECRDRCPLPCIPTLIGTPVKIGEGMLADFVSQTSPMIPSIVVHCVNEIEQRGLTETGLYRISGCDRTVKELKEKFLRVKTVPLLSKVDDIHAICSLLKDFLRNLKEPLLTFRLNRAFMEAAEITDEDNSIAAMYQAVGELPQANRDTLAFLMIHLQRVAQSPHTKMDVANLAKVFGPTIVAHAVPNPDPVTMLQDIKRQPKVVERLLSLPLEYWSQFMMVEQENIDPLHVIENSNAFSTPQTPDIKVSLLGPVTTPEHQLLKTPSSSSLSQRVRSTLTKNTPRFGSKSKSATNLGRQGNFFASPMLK

[22] = THP-1 cell cytotoxicity, dose response, cytotoxicity control for Vif-APOBEC3G degradation inhibitor project, THP-1 cells (AID 1117359); format: functional; details: Human immunodeficiency virus 1, THP-1
[23] = target: Glutathione-S-transferase (Schistosoma japonicum, UniProt Q26513); assay: biotin-GST/anti-GST TR-FRET signal inhibitors, dose response, artefact control for Vif-APOBEC3G degradation inhibitor project, biochemical (AID 1117362); format: functional
[24] = PAX5 activity inhibitors, dose response, selectivity assay for PAX8 inhibitor project, cell-based, plate reader, dry powder samples (AID 743047); format: functional;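 also: HEK293 cells carrying a Pax5 driven CD19 promoter luciferase reporter; potency of inhibitors that lower reporter luminescence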
[25] = cytotoxicity in COV434 cells, dose response, cytotoxicity control for PAX8 inhibitor project, cell-based, plate reader, dry powder, SA7 (AID 743145); format: functional
[26] = cytotoxicity in OV-90 ovarian cancer cells, dose response, PAX8 inhibitor project, cell-based, plate reader, dry powder, SA8 (AID 743149); format: functional
[27] = cytotoxicity dependent on PAX8, dose response, cell-based, plate reader, dry powder (AID 743049); format: functional
[28] = target: COUP transcription factor 2 (Homo sapiens, UniProt P24468); assay: Luminescence-based cell-based high throughput dose response assay to identify inhibitors of COUP-TFII (NR2F2).; format: functional;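 also: HEK293 cells transiently cotransfected with COUP-TFII expression vector and reporter; luciferase reporter luminescence driven by COUP-TFII from the pX2-168 reporter plasmid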
[29] = IGROV1 ovarian cancer cell cytotoxicity, dose response, PAX8 inhibitor project, plate reader, dry powder samples (AID 743043); format: functional, cell-based; details: IGROV-1
[30] = Vero cell cytotoxicity, dose response, cytotoxicity control for Vif-APOBEC3G degradation inhibitor project, Vero cells (AID 1117358); format: functional; details: Human immunodeficiency virus 1, Vero

Sequence of Paired box protein Pax-8 (Q06710 whole entry): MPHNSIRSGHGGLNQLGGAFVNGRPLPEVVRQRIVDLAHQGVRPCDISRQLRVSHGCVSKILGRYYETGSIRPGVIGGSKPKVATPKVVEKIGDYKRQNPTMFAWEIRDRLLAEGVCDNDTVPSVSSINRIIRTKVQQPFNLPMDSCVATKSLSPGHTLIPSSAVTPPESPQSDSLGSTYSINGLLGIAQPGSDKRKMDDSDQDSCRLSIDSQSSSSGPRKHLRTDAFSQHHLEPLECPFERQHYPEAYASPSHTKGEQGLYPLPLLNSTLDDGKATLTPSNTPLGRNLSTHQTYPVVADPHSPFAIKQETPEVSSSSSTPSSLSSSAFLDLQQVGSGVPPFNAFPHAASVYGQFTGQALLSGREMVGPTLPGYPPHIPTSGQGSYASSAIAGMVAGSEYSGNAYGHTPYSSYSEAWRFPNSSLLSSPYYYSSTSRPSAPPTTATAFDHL
Sequence of Glutathione-S-transferase (Q26513 whole entry): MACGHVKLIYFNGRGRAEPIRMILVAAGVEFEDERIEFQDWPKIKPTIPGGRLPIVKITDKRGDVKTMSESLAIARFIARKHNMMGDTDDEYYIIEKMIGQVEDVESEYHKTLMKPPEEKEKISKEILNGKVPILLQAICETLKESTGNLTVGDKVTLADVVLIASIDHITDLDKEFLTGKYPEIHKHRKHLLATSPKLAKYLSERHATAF
Sequence of G-protein coupled receptor 183 (P32249 whole entry): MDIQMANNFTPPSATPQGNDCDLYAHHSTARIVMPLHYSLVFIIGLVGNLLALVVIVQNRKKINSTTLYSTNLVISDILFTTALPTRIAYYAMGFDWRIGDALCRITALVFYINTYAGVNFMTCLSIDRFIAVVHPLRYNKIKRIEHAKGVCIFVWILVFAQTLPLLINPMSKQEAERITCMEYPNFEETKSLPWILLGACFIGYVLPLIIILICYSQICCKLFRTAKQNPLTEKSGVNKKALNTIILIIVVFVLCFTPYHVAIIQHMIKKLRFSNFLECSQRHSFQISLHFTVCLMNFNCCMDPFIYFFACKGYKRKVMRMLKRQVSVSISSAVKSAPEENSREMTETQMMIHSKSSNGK
Sequence of Beta Lactamase (Q932Y6 whole entry): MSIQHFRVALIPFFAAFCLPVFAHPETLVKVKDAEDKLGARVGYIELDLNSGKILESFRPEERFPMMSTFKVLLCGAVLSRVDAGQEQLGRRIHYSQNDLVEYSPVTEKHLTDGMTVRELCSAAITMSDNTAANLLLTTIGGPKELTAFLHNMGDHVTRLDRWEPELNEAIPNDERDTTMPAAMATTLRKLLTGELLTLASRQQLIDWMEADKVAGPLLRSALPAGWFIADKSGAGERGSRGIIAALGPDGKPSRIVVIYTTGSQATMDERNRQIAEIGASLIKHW
Sequence of Glucose-6-phosphate 1-dehydrogenase (P11413 whole entry): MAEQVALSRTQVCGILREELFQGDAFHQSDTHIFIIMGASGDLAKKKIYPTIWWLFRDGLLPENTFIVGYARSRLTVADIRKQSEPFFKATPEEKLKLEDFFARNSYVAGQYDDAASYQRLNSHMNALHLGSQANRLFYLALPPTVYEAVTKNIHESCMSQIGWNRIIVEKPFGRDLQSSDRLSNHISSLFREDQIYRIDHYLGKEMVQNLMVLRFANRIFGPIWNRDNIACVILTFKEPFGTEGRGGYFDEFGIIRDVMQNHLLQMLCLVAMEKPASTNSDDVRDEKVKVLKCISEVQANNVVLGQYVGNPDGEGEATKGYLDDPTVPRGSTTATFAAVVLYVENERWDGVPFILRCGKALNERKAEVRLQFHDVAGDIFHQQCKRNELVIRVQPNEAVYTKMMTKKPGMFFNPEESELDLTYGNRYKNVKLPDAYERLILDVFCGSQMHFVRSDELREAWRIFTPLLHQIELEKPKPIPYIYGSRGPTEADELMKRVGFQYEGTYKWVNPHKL
Sequence of Genome polyprotein (P29990 2492-3391 limits assumed): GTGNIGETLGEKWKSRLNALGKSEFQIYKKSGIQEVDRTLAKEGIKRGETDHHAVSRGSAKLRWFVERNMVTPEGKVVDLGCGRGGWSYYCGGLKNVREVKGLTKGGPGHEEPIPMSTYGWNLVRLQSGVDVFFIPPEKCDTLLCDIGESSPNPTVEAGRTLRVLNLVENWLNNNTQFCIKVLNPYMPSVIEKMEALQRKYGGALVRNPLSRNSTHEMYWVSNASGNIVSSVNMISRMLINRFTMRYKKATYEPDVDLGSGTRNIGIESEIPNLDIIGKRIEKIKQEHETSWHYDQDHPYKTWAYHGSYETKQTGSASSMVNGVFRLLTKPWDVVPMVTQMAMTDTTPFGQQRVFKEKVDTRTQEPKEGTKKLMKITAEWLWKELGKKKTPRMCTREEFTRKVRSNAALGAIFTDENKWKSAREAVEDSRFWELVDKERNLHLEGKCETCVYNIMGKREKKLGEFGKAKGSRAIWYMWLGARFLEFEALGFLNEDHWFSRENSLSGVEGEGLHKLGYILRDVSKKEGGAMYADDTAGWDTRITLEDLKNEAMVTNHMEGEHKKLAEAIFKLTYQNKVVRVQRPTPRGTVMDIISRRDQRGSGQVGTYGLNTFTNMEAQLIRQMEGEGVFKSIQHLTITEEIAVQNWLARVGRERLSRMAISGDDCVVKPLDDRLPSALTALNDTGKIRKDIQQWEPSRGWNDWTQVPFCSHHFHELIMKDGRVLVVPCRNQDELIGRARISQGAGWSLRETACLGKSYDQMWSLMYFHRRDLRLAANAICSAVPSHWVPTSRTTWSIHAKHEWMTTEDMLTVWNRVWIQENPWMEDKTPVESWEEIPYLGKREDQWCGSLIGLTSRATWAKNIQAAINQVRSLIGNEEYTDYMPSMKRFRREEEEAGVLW
Sequence of 1-phosphatidylinositol 4,5-bisphosphate phosphodiesterase gamma-1 (P19174 whole entry): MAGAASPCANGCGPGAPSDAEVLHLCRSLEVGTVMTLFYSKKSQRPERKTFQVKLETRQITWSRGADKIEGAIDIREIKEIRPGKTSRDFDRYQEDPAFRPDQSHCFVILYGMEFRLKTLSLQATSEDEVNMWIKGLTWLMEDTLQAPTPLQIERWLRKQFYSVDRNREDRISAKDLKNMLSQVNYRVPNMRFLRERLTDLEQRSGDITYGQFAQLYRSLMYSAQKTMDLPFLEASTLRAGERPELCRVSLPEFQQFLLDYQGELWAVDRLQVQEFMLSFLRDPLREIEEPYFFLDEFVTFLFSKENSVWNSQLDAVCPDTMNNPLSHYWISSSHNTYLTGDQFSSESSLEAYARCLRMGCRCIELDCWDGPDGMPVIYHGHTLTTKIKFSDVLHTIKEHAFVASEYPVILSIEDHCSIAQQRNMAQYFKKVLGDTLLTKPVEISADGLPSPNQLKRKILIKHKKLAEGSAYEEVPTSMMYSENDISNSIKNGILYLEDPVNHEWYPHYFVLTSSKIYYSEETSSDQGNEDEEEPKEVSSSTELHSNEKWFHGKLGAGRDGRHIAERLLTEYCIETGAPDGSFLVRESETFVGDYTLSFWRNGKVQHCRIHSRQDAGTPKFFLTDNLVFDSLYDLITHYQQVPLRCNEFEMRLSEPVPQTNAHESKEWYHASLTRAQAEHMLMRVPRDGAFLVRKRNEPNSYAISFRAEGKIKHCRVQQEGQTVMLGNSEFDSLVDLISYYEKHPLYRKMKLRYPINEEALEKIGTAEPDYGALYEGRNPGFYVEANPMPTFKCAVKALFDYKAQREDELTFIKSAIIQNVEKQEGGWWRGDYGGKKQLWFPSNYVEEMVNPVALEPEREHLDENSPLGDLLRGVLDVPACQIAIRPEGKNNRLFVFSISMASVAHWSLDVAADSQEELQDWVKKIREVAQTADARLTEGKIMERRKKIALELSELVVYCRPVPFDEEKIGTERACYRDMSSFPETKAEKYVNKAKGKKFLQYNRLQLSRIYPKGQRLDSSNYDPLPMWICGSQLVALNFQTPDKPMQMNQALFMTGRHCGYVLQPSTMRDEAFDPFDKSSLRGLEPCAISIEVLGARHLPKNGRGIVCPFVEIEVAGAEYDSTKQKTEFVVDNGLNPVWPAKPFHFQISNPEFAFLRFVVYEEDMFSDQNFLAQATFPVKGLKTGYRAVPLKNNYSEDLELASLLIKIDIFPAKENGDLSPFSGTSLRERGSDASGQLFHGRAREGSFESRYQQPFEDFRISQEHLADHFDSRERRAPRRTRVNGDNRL
Sequence of Nonstructural protein 1 (Q194T2 whole entry, the tested form may be a part): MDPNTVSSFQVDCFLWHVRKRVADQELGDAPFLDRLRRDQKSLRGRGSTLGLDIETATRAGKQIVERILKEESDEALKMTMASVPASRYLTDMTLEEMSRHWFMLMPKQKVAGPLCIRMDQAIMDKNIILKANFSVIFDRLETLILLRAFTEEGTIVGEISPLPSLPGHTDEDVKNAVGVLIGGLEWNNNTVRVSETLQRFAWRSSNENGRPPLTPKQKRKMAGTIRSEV
Sequence of COUP transcription factor 2 (P24468 whole entry): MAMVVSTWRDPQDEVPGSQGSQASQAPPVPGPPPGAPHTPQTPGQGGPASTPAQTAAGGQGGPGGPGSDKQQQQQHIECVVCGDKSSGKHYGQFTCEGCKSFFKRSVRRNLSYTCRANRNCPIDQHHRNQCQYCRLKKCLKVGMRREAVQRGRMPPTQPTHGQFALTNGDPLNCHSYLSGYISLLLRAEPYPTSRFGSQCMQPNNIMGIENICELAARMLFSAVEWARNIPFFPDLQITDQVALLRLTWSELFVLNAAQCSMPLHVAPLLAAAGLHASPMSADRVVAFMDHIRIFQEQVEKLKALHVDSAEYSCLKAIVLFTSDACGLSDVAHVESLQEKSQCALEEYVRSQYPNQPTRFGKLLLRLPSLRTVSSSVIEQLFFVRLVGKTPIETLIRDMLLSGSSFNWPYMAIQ
Sequence of Kallikrein-7 (P49862 whole entry): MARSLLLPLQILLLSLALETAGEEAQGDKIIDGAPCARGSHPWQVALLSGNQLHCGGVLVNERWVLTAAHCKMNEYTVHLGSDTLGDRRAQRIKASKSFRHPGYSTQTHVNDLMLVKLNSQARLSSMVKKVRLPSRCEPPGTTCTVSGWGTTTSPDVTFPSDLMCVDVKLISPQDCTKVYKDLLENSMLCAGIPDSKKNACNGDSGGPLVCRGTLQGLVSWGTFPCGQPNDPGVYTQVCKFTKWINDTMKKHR

In the case of `O=S(=O)(c1ccccc1)c1cnn(-c2ccccc2)c1-c1ccc(Cl)cc1`, the IC50 [1] is reported as > 122 µM (inactive) and the IC50 [2] is reported as > 122 µM (inactive).
In the case of `O=C(/C=C/c1ccc(Br)cc1)N1CCN(Cc2ccc(Cl)c(Cl)c2)CC1`, the IC50 [3] is reported as 0.00172 µM (active).
For `CC(C)(C)[S@@+]([O-])N1Cc2cc(C(=O)NCc3ccccc3F)nc(-c3cccc(-c4ccncc4)c3)c2[C@H]1CCO`, the AbsAC35 [4] was 50.48 µM, the AC50 [5] was > 52 µM (inactive) and the AC50 [6] was 32.2 µM (active).
With `CC(C)N1C[C@@H](C)[C@H](CN(C)Cc2ccc(Oc3ccccc3)cc2)Oc2c(C(=O)Nc3ccncc3)cccc2C1=O` the AC50 [7] was 6.05 µM (active) and the AC50 [8] was 40.5 nM (active) and 71.6 nM (active).
For `C[C@@H]1CN([C@H](C)CO)C(=O)c2cc(NC(=O)Nc3ccc(F)cc3)ccc2O[C@@H](C)CCCCO[C@@H]1CN(C)Cc1ccc(C(F)(F)F)cc1`, the AC50 (Paired box protein Pax-8) was 5.91 µM (active), the AC50 [9] was 40.6 µM (active) and the AC50 [10] was 12.4 µM (active). The AC50 [11] was 39.5 µM (active).
In the case of `Cc1ccc(C(=O)Nc2ccc(NC(=O)c3ccc(C)o3)cc2)o1`, the EC50 (Kallikrein-7) is reported as 12.7 µM (inactive) and the EC50 [12] is reported as > 7.72 µM (active).
In the case of `Cc1cc(NC(=O)c2coc(=O)c(Br)c2)ccc1C(C)C`, the IC50 [13] is reported as 0.685 µM (active), the CC50 (Vero [14]) is reported as > 25 µM (active) and the IC50 [15] is reported as 18.8 µM (inactive). The IC50 [16] was 8.9 µM (active).
With `CCN(CC)c1ccc(C(=C2C=CC(=[N+](CC)CC)C=C2)c2ccccc2)cc1` the IC50 [17] was > 80 µM (inactive), the IC50 (Nonstructural protein 1) was 10.4 µM (active) and the IC50 (CHO) was 0.181 µM (active). For the same compound, the AC50 [18] was 0.754 µM (active), the CC50 (Vero [19]) was 0.27 µM (active) and the IC50 (Beta Lactamase) was 4.75 µM (active). The IC50 (Genome polyprotein) was 24.9 µM (active), the CC50 [20] was 0.823 µM (active) and the IC50 [21] was 9.8 µM (active). The CC50 [22] was 0.1 µM (active) and the IC50 [23] was 25.3 µM (active).
With `N#C[C@@H]1[C@@H](c2ccc(-c3cccc(F)c3)cc2)[C@H](CO)N1C(=O)NC1CCCC1` the AC50 (Paired box protein Pax-8) was 22.2 µM (active), the AC50 [24] was 55.5 µM (active) and the AC50 [25] was 65.3 µM (active). The AC50 [26] was > 70 µM (inactive) and the AC50 [27] was 39.6 µM (active).
For `Cc1cc(C)c(O)c(C(=O)CC2CC(=O)NC(=O)C2)c1`, the IC50 [28] was 9.88 µM (active).
For `O=C(C[C@@H]1CC[C@@H]2[C@H](COC[C@@H](O)CN2C(=O)Nc2ccc(C(F)(F)F)cc2)O1)NC1Cc2ccccc2C1`, the AC50 (Paired box protein Pax-8) was 5.62 µM (active) and the AC50 [29] was 56.8 µM (active).
With `N=c1sccn1CC(=O)Nc1ccc2c(c1)CCC2` the CC50 [30] was > 40 µM (active).
